Experiment: Solubility of tamsulosin HCl in aqueous media
Format: physicochemical
Conditions: up to 10 mg
Description: SGF represents a standard stomach condition. SIF represents a standard intestinal condition. FeSSIF is tailored to better represent the fed state while FaSSIF is tailored to better represent the fasting state. Note that not only are the pH different, but equally important, the osmolarity are also different.

## CCOc1ccccc1OCCNC(C)Cc1ccc(OC)c(S(N)(=O)=O)c1 (stereo not shown) [tamsulosin HCI, 5-[2-[[2-(2-ethoxyphenoxy)ethyl]amino]propyl]-2-methoxy-benzenesulfonamide]
  volume of any aqueous media needed to dissolve until 10 mg: not more than 500 ml

Source: patent publication US20030147950A1, “Modified release tamsulosin tablets” (priority 2001, published 2003)
